From PubChem BioAssay AID1963870 (Molecular Pharmacology Branch, DTP, NCI, 2024)
Calls of active or inactive are those of the source. How the source made its calls: active means viability on the fitted dose curve at most 10% of control; inactive means the rest.

Test system: 292921-168-R-J2-PDC KRAS tumor spheroid viability
Assay: Anticancer human tumor 292921-168-R-J2-PDC patient-derived pancreatic carcinoma cell line growth inhibition [KRAS2]
Conditions: spheroids with HUVEC and MSC; for viability, T/C: stronger effect = lower value
Summary of the method: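 KRAS-mutant tumor cells were grown as spheroids with HUVEC endothelial cells and human MSCs as stroma. Targeted agents were tested alone and with KRAS pathway inhibitors. Doses started at or near clinical Cmax, or 10 microM, descending half-log.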

[1] = curve of first compound, second compound 0.1 µM
[2] = curve of first compound, second compound 0.316 µM
[3] = curve of first compound, second compound 1 µM
[4] = curve of first compound, second compound 3.16 µM
[5] = curve of first compound, second compound 10 µM
[6] = second compound 0.1 µM, first compound 0.0316 µM
[7] = second compound 0.1 µM, first compound 0.1 µM
[8] = second compound 0.1 µM, first compound 0.316 µM
[9] = second compound 0.1 µM, first compound 1 µM
[10] = second compound 0.1 µM, first compound 3.16 µM
[11] = second compound 0.1 µM, first compound 10 µM
[12] = second compound 0.316 µM, first compound 0.0316 µM
[13] = second compound 0.316 µM, first compound 0.1 µM
[14] = second compound 0.316 µM, first compound 0.316 µM
[15] = second compound 0.316 µM, first compound 1 µM
[16] = second compound 0.316 µM, first compound 3.16 µM
[17] = second compound 0.316 µM, first compound 10 µM
[18] = second compound 1 µM, first compound 0.0316 µM
[19] = second compound 1 µM, first compound 0.1 µM
[20] = second compound 1 µM, first compound 0.316 µM
[21] = second compound 1 µM, first compound 1 µM
[22] = second compound 1 µM, first compound 3.16 µM
[23] = second compound 1 µM, first compound 10 µM
[24] = second compound 3.16 µM, first compound 0.0316 µM
[25] = second compound 3.16 µM, first compound 0.1 µM
[26] = second compound 3.16 µM, first compound 0.316 µM
[27] = second compound 3.16 µM, first compound 1 µM
[28] = second compound 3.16 µM, first compound 3.16 µM
[29] = second compound 3.16 µM, first compound 10 µM
[30] = second compound 10 µM, first compound 0.0316 µM
[31] = second compound 10 µM, first compound 0.1 µM
[32] = second compound 10 µM, first compound 0.316 µM
[33] = second compound 10 µM, first compound 1 µM
[34] = second compound 10 µM, first compound 3.16 µM
[35] = second compound 10 µM, first compound 10 µM
[36] = second compound 0.1 µM, first compound 0.01 µM
[37] = second compound 0.316 µM, first compound 0.01 µM
[38] = second compound 1 µM, first compound 0.01 µM
[39] = second compound 3.16 µM, first compound 0.01 µM
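Wherever IC50 is given: drug exposure lasted seven days after spheroids formed for three days.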
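Wherever viability, T/C is given: drug exposure lasted seven days after spheroids formed for three days; percent of DMSO vehicle control viability which is 100%.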

Row | Structure (SMILES) | IC50 [1] | IC50 [2] | IC50 [3] | IC50 [4] | viability, T/C [6] | viability, T/C [7] | viability, T/C [8] | viability, T/C [9] | viability, T/C [10] | viability, T/C [12] | viability, T/C [13] | viability, T/C [14] | viability, T/C [15] | viability, T/C [16] | viability, T/C [18] | viability, T/C [19] | viability, T/C [20] | viability, T/C [21] | viability, T/C [22] | viability, T/C [24] | also measured
1 | COc1cc2nccc(Oc3ccc(NC(=O)C4(C(=O)Nc5ccc(F)cc5)CC4)cc3)c2cc1OC + CNCc1ccccc1-c1csc(C(C)Nc2nc(C)nc3cc(OC)c(OC)cc23)c1 | 1.27 µM | 1.05 µM | 0.401 µM | < 0.0316 µM | 89.2% | 94.5% | 82.5% | 57.1% | 25.1% | 89.4% | 90.8% | 73.4% | 55.3% | 19.8% | 69.1% | 65.5% | 50.1% | 40.2% | 15.1% | 0.1% | IC50 [5]: < 0.0316 µM; viability, T/C [11]: 18.1%; viability, T/C [17]: 17%; viability, T/C [23]: 3.12%; viability, T/C [25]: 0.09%; viability, T/C [26]: 0.13%; viability, T/C [27]: 0.06%; viability, T/C [28]: 0.05%; viability, T/C [29]: 0.1%; viability, T/C [30]: 0.08%; viability, T/C [31]: 0.13%; viability, T/C [32]: 0.21%; viability, T/C [33]: 0.08%; viability, T/C [34]: 0.42%; viability, T/C [35]: 0.25%
2 | CC(C)n1nc(-c2ccc3oc(N)nc3c2)c2c(N)ncnc21 |  |  |  |  |  |  |  |  |  |  |  |  |  |  |  |  |  |  |  |  | viability, T/C (compound 0.001 µM): 61.9% [middle of 5 runs]; viability, T/C (compound 0.00316 µM): 48.2% [middle of 5 runs]; viability, T/C (compound 0.01 µM): 35.1% [middle of 5 runs]; viability, T/C (compound 0.0316 µM): 27.3% [middle of 5 runs]; viability, T/C (compound 0.1 µM): 22.6% [middle of 5 runs]; IC50 (curve of compound): 2.46 nM [middle of 5 runs]
3 | COC(=O)c1ccc2c(C(=Nc3ccc(N(C)C(=O)CN4CCN(C)CC4)cc3)c3ccccc3)c(O)[nH]c2c1 + C=CC(=O)N1CCN(c2nc(=O)n(-c3c(C)ccnc3C(C)C)c3nc(-c4c(O)cccc4F)c(F)cc23)C(C)C1 | < 0.0316 µM | < 0.0316 µM | 0.0588 µM | 0.0418 µM | 44.2% | 39.2% | 30.9% | 18.8% | 11.9% | 48.4% | 40.6% | 25.3% | 20.1% | 5.83% | 56.8% | 43.7% | 29.2% | 15.8% | 2.31% | 52.8% | IC50 [5]: < 0.0316 µM; viability, T/C [11]: 0.29%; viability, T/C [17]: 0.17%; viability, T/C [23]: 0.19%; viability, T/C [25]: 41.5%; viability, T/C [26]: 25.7%; viability, T/C [27]: 16.9%; viability, T/C [28]: 2.53%; viability, T/C [29]: 0.13%; viability, T/C [30]: 38.1%; viability, T/C [31]: 36.4%; viability, T/C [32]: 24.8%; viability, T/C [33]: 19.2%; viability, T/C [34]: 3.45%; viability, T/C [35]: 0.21%
4 | CC(=O)OC12COC1CC(O)C1(C)C(=O)C(O)C3=C(C)C(OC(=O)C(O)C(NC(=O)OC(C)(C)C)c4ccccc4)CC(O)(C(OC(=O)c4ccccc4)C21)C3(C)C (stereo unspecified) + C=CC(=O)N1CCN(c2nc(OCC3CCCN3C)nc3c2CCN(c2cccc4cccc(C)c24)C3)CC1CC#N | < 0.01 µM | < 0.01 µM | < 0.01 µM | < 0.01 µM | 12% | 9.84% | 9.08% | 12.5% | 14.9% | 9.96% | 8.56% | 9.75% | 15.3% | 14.3% | 6.89% | 6.48% | 7.06% | 6.74% | 7.91% | 13.7% | IC50 (curve of first compound, second compound 0.0316 µM): < 0.01 µM; viability, T/C (second compound 0.0316 µM, first compound 0.01 µM): 12.8%; viability, T/C (second compound 0.0316 µM, first compound 0.0316 µM): 14.4%; viability, T/C (second compound 0.0316 µM, first compound 0.1 µM): 10.5%; viability, T/C (second compound 0.0316 µM, first compound 0.316 µM): 11.3%; viability, T/C (second compound 0.0316 µM, first compound 1 µM): 13.3%; viability, T/C (second compound 0.0316 µM, first compound 3.16 µM): 17.1%; viability, T/C [36]: 13.8%; viability, T/C [37]: 11.8%; viability, T/C [38]: 8.08%; viability, T/C [39]: 15.1%; viability, T/C [25]: 11.1%; viability, T/C [26]: 11.6%; viability, T/C [27]: 14%; viability, T/C [28]: 18.2%
5 | CC1COCCN1c1cc(-c2ccnn2C)c2ccnc(-c3ccn[nH]3)c2n1 (stereo unspecified) + COc1cc2nc(C)nc(NC(C)c3cc(N)cc(C(F)(F)F)c3)c2cc1OC1CCOC1 | < 0.01 µM | < 0.01 µM | < 0.01 µM | < 0.01 µM | 14.4% | 11.1% | 10.6% | 12.1% | 14.1% | 12.9% | 10.1% | 9.13% | 10.8% | 12.5% | 11.6% | 9.3% | 8.99% | 11.2% | 13.2% | 12.1% | IC50 [5]: < 0.01 µM; viability, T/C [36]: 30.3%; viability, T/C [37]: 25.2%; viability, T/C [38]: 25.6%; viability, T/C [39]: 19.4%; viability, T/C [25]: 9.36%; viability, T/C [26]: 8.32%; viability, T/C [27]: 10.4%; viability, T/C [28]: 11.8%; viability, T/C (second compound 10 µM, first compound 0.01 µM): 12.9%; viability, T/C [30]: 12.5%; viability, T/C [31]: 9.42%; viability, T/C [32]: 8.21%; viability, T/C [33]: 8.78%; viability, T/C [34]: 7.99%
6 | O=C(c1cc(Cc2n[nH]c(=O)c3ccccc23)ccc1F)N1CCN(C(=O)C2CC2)CC1 + CC1OCC2(CCN(c3cnc(Sc4ccnc(N)c4Cl)c(N)n3)CC2)C1N | 7.22 µM | 5.52 µM | 8.78 µM | < 0.0316 µM | 90.5% | 82.3% | 81.2% | 90.5% | 74.3% | 76.5% | 63.6% | 63.8% | 78% | 62.5% | 138% | 120% | 113% | 120% | 83.9% | 48% | IC50 [5]: < 0.0316 µM; viability, T/C [11]: 40.5%; viability, T/C [17]: 34.6%; viability, T/C [23]: 45.1%; viability, T/C [25]: 41.3%; viability, T/C [26]: 50.7%; viability, T/C [27]: 45.4%; viability, T/C [28]: 39.7%; viability, T/C [29]: 30.6%; viability, T/C [30]: 50.8%; viability, T/C [31]: 44.6%; outcome [32]: inactive; viability, T/C [33]: 38.6%; viability, T/C [34]: 34.4%; viability, T/C [35]: 27.6%
